Assay results: the NIST ThermoML archive (doi:10.1021/je5005752)

Test: xn = mol fraction of the nth substance listed
Conditions: 101 kPa, Liquid; for viscosity: Falling or rolling sphere viscometry; for mass density: Vibrating tube method

CCCC(=O)OCC [ethyl butanoate] + CC(C)CCO
Conditions | mass density [kg/m3] | viscosity [mPa·s]
288.15 K, x1 = 0.1001 | 820.68 | 3.238
288.15 K, x1 = 0.2 | 828.59 | 2.255
288.15 K, x1 = 0.3 | 836.24 | 1.754
288.15 K, x1 = 0.4 | 843.64 | 1.414
288.15 K, x1 = 0.5 | 850.77 | 1.184
288.15 K, x1 = 0.6 | 857.71 | 1.031
288.15 K, x1 = 0.7 | 864.47 | 0.9059
288.15 K, x1 = 0.7999 | 871.18 | 0.8213
288.15 K, x1 = 0.8995 | 877.79 | 0.7679
288.15 K, x1 = 1 | 884.16 | 0.7224
293.15 K, x1 = 0.1001 | 816.74 | 2.813
293.15 K, x1 = 0.2 | 824.48 | 2
293.15 K, x1 = 0.3 | 831.95 | 1.575
293.15 K, x1 = 0.4 | 839.17 | 1.285
293.15 K, x1 = 0.5 | 846.15 | 1.086
293.15 K, x1 = 0.6 | 852.95 | 0.953
293.15 K, x1 = 0.7 | 859.56 | 0.8432
293.15 K, x1 = 0.7999 | 866.14 | 0.7689
293.15 K, x1 = 0.8995 | 872.63 | 0.7214
293.15 K, x1 = 1 | 878.9 | 0.6808
298.15 K, x1 = 0.1001 | 812.8 | 2.462
298.15 K, x1 = 0.2 | 820.34 | 1.785
298.15 K, x1 = 0.3 | 827.63 | 1.422
298.15 K, x1 = 0.4 | 834.7 | 1.172
298.15 K, x1 = 0.5 | 841.51 | 0.9993
298.15 K, x1 = 0.6 | 848.16 | 0.8831
298.15 K, x1 = 0.7 | 854.64 | 0.7864
298.15 K, x1 = 0.7999 | 861.09 | 0.7207
298.15 K, x1 = 0.8995 | 867.46 | 0.6784
298.15 K, x1 = 1 | 873.62 | 0.643
303.15 K, x1 = 0.1001 | 808.84 | 2.164
303.15 K, x1 = 0.2 | 816.19 | 1.598
303.15 K, x1 = 0.3 | 823.31 | 1.288
303.15 K, x1 = 0.4 | 830.2 | 1.073
303.15 K, x1 = 0.5 | 836.86 | 0.9221
303.15 K, x1 = 0.6 | 843.37 | 0.8204
303.15 K, x1 = 0.7 | 849.71 | 0.7345
303.15 K, x1 = 0.7999 | 856.02 | 0.6764
303.15 K, x1 = 0.8995 | 862.27 | 0.6389
303.15 K, x1 = 1 | 868.33 | 0.6072
308.15 K, x1 = 0.1001 | 804.86 | 1.914
308.15 K, x1 = 0.2 | 812.02 | 1.439
308.15 K, x1 = 0.3 | 818.96 | 1.172
308.15 K, x1 = 0.4 | 825.69 | 0.9851
308.15 K, x1 = 0.5 | 832.19 | 0.853
308.15 K, x1 = 0.6 | 838.55 | 0.7639
308.15 K, x1 = 0.7 | 844.75 | 0.6872
308.15 K, x1 = 0.7999 | 850.94 | 0.6355
308.15 K, x1 = 0.8995 | 857.07 | 0.6026
308.15 K, x1 = 1 | 863.02 | 0.5736
313.15 K, x1 = 0.1001 | 800.85 | 1.7
313.15 K, x1 = 0.2 | 807.82 | 1.302
313.15 K, x1 = 0.3 | 814.58 | 1.069
313.15 K, x1 = 0.4 | 821.15 | 0.9071
313.15 K, x1 = 0.5 | 827.5 | 0.7907
313.15 K, x1 = 0.6 | 833.71 | 0.7128
313.15 K, x1 = 0.7 | 839.78 | 0.6437
313.15 K, x1 = 0.7999 | 845.83 | 0.5975
313.15 K, x1 = 0.8995 | 851.85 | 0.569
313.15 K, x1 = 1 | 857.7 | 0.5425
318.15 K, x1 = 0.1001 | 796.81 | 1.516
318.15 K, x1 = 0.2 | 803.6 | 1.181
318.15 K, x1 = 0.3 | 810.18 | 0.9787
318.15 K, x1 = 0.4 | 816.58 | 0.8373
318.15 K, x1 = 0.5 | 822.78 | 0.7346
318.15 K, x1 = 0.6 | 828.85 | 0.6658
318.15 K, x1 = 0.7 | 834.78 | 0.6038
318.15 K, x1 = 0.7999 | 840.71 | 0.5626
318.15 K, x1 = 0.8995 | 846.61 | 0.538
318.15 K, x1 = 1 | 852.36 | 0.5132
323.15 K, x1 = 0.1001 | 792.73 | 1.371
323.15 K, x1 = 0.2 | 799.34 | 1.08
323.15 K, x1 = 0.3 | 805.76 | 0.8983
323.15 K, x1 = 0.4 | 811.99 | 0.7743
323.15 K, x1 = 0.5 | 818.03 | 0.6838
323.15 K, x1 = 0.6 | 823.96 | 0.6195
323.15 K, x1 = 0.7 | 829.75 | 0.5672
323.15 K, x1 = 0.7999 | 835.56 | 0.5303
323.15 K, x1 = 0.8995 | 841.34 | 0.5071
323.15 K, x1 = 1 | 847 | 0.487
